{
  "source": "paper PMC6754432",
  "about": "“Radiochemical examination of transthyretin (TTR) brain penetration assisted by iododiflunisal, a TTR tetramer stabilizer and a new candidate drug for AD” (Scientific Reports, 2019)",
  "key": {"TTR": {"target": "T1, TTR (Homo sapiens, UniProt P02766)", "T1 construct": "made in house", "test": "Displacement of bound [131I]IDIF from TTR-[131I]IDIF complex by non-labeled IDIF", "assay_type": "binding", "conditions": "concentrations over 50 μM of IDIF, TTR complex 0.11 μM, overnight 4 °C", "protocol": "Likewise, the preparation of [^131I]TTR-IDIF was carried out under adequate conditions to ensure that all the [^131I]TTR was stabilized with IDIF. This is extremely important because the separation of [^131I]TTR from [^131I]TTR-IDIF is unfeasible using chromatographic techniques. […] It was observed that a concentration of IDIF = 50 µM displaced > 99% of bound [^131I]IDIF.\nFirst, the TTR/IDIF relative amount to achieve complete formation of the complex was determined. With that aim, six 100 μL aliquots of the [^131I]IDIF-TTR complex prepared as described above were incubated overnight (T = 4 °C) with different amounts of non-radioactive IDIF in 100 μL TNE buffer (final concentrations of IDIF = 0.88, 2.63, 8.76, 17.5, 52.5 and 175 μM, respectively; final concentration of TTR as TTR-[^131I]IDIF complex = 0.11 μM). After incubation, the samples were eluted through illustra^TM NAP-5 columns (GE Healthcare, USA) and radioactivity corresponding to the collected fractions of free [^131I]IDIF and TTR-[^131I]IDIF complex were compared to determine the proportion of [^131I]IDIF free and bound to TTR. For concentrations over 50 μM of IDIF, the displacement was > 97%."}, "[1]": {"test": "Ex vivo biodistribution by dissection and gamma counting after intravenous administration", "assay_type": "in vivo", "conditions": "i.v., mice", "protocol": "The biodistribution of [^131I]TTR after intravenous administration in wild type mice was first investigated. With that aim, animals (n = 3 per time point) were administered with the radiotracer and sacrificed by exsanguination at pre-defined time points. Major organs were harvested together with blood and urine and the amount of radioactivity was determined by gamma counting. (Fig. 2, red bars).\nAnimals (n = 3 per compound and time point) were anesthetized with isoflurane 5% in pure oxygen and a solution containing [^131I]TTR, [^131I]IDIF, [^131I]TTR-IDIF complex or TTR-[^131I]IDIF complex (0.9 ± 0.4 MBq/120 μl) was injected through one of the lateral tail veins. Animals were recovered from anaesthesia and at pre-determined time points (t = 5, and 15 min and 1, 6 and 24 h), animals were sacrificed by perfusion using saline solution and kidneys, spleen, liver, small intestine, and brain were quickly removed and rinsed with water. The amount of activity in each organ was measured in an automatic gamma counter (2470 Wizard, PerkinElmer). Urine and blood samples were obtained just before perfusion. Part of the blood was processed to separate the plasma, which was also counted in the gamma counter.\nFor dissection and gamma counting experiments to assess biodistribution, values obtained for different compounds at each time point and organ were compared using t-student test, comparison of two independent means, using the GraphPad Prism software (version 7.03)."}},
  "data": [
    {"smiles": "O=C(O)c1cc(-c2ccc(F)cc2F)cc(I)c1O", "note": "[IDIF, iododiflunisal]", "values": [
      {"measurement": "displacement of [131I]IDIF", "setting": "TTR", "value": "> 97", "unit": "%"}
    ]},
    {"smiles": "O=C(O)c1cc(-c2ccc(F)cc2F)cc([131I])c1O", "note": "[[^131I]IDIF, [^131I]iododiflunisal]", "values": [
      {"measurement": "percentage of injected dose per gram of blood", "setting": "[1]; blood, t = 5 min, n = 3", "value": "23.3 ± 7.6", "unit": "%ID/g"},
      {"measurement": "maximum value in brain", "setting": "[1]; brain, 1 h after administration", "value": 0.05, "unit": "%ID/g"},
      {"measurement": "accumulation in kidneys", "setting": "[1]; kidneys, t = 5 min", "value": "14.9 ± 3.0", "unit": "% ID/g"},
      {"measurement": "accumulation in liver", "setting": "[1]; liver, t = 5 min", "value": "20.0 ± 5.5", "unit": "% ID/g"},
      {"measurement": "accumulation in small intestine (peak)", "setting": "[1]; small intestine, peak at t = 1–6 h", "value": "ca. 15 % ID/g"}
    ]}
  ]
}
